The values that follow come from patent US20260183297A1, “SELECTION OF PATIENTS FOR THE TREATMENT OF FADS1-MEDIATED DISEASES OR DISORDERS USING FADS-1 INHIBITORS” (AMGEN INC., priority 2022, published 2026).

For experiment [1], the system named is liver, EPI WAT and ING WAT. Briefly: RNA-Seq analysis of liver, EPI WAT and ING WAT. The format is in vivo, mouse. The conditions noted are these: 30 mg/kg, 54 days. As for the experimental part:
RNA was extracted by using the Qiagen RNeasy 96 Universal kit (QIAGEN, Germantown, MD). The concentration and quality of the isolated RNA samples were assessed and determined on an Agilent 4200 TapeStation system and had RNA integrity numbers more than 9.1. Adipose or liver RNA (250 ng) was used to prepare a cDNA library by using a protocol modified from the Illumina TruSeq Stranded mRNA kit (Illumina, San Diego CA). Briefly, after polyA^+ RNA selection, fragmentation, and priming, the fragmented RNA was transcribed to cDNA in the reaction of reverse transcription containing SuperScript™ II (Thermo Fisher Scientific—Invitrogen™, Waltham, MA) and RNase-out (Thermo Fisher Scientific—Invitrogen™, Waltham, MA) and, sequentially, the products of the first strand cDNA synthesis reaction were converted to double-stranded cDNAs and subjected to end repair, A-tailing, and adapter ligation by following the commercial instruction. The constructed libraries were amplified and barcoded using the PCR program: a denaturation step at 98° C. for 30 seconds, 15 cycles of 95° C. for 10 seconds, 60° C. for 30 seconds, and 72° C. for 30 seconds, and a 72° C. extension cycle for 5 minutes followed by a hold step at 4° C. Libraries were sequenced to a minimum depth of 30 million paired end reads on an Illumina HiSeq4000 with the 100 nt or 150 nt read length.
RNA-Seq sequencing reads of the mouse samples were aligned and processed using OSA aligner, which is implemented in the OmicSoft Array Suite (QIAGEN OmicSoft, Cary, NC), based on mouse genome version GRCm38 and gene model GENCODE v19. Read count quantification was performed to the gene level based on OmicSoft implementation of RSEM. Downstream analysis using the read count output was performed following the standard RNA-seq workflow of DESeq2 R/Bioconductor package. Briefly, raw read count was transformed and nonnalized using the Variance Stabilizing Transformation (VST) method. Principal component analysis (PCA) was carried out by the plotPCA function using top 1000 variable genes. Differential expression analysis based on the negative binomial distribution was performed using the DESeq function.
Gene expression was represented as normalized fragments per kilobase per million reads (FPKM). FPKM values were further normalized with a refinement of the commonly employed upper-quartile method that sets the FPKM to a value of 10 at the 70th percentile. Lowly expressed genes with fewer than five samples at FPKM≥1 were removed. Genes with Benjamini-Hochberg (BH)-adjusted P value <0.01 and fold change ≥2 or ≤0.5 were selected as DEGs. Volcano plots of differential expression analysis results were made using EnhancedVolcano R package (github.com/kevinblighe/EnhancedVolcano).
The selected DEGs were annotated by IPA (QIAGEN, Redwood City, CA) on canonical pathways and toxicity lists. Gene expression enrichment in Gene Ontology (GO), KEGG was analyzed by using Cluster Profiler R package with default parameters. Deconvolution analysis was performed using MuSiC software v0.2.0 to estimate relative cell type abundance in each mouse bulk tissue samples. The Tabula Muris single-cell RNA-seq data set was used as a reference for MuSiC algorithm. The analysis was done separately for each tissue types including EPI and ING WAT, and liver.

Experiment [2] in a line: Biomarker analysis of tissue and plasma samples (Luminex: adiponectin, leptin, PAI-1, MCP-1). The experiment is classed as in vivo, mouse. The conditions noted are these: DIO mice, 30 mg/kg. As for the experimental part:
Frozen liver and adipose tissue samples were powdered with stainless steel Bessman Tissue Pulverizers (Spectrum Laboratory Products, Gardena, CA) per the manufacturer's instructions and the resulting tissue powders were stored in cryotubes at −80° C. until extraction. A portion of each powdered tissue sample was extracted using an in-house protein extraction buffer (50-mM Tris buffer, pH 7.4, 0.1 M NaCl and 0.1% Triton X-100) containing a protease inhibitor cocktail (Millipore Sigma, Burlington, MA). Samples were homogenized with a MagNA Lyser (Roche Diagnostics, Indianapolis, IN) for 30 seconds at 6500 rpm, placed at 4° C. for 30 minutes and then spun in a refrigerated microcentrifuge at 10,000 rpm for 10 minutes. The resulting supernatants were removed to clean 1.5 ml microfuge tubes and spun again at 14,000 rpm for 15 minutes. The final supernatants were aliquoted into labeled cluster tubes and protein concentrations were determined using a standard BCA Protein Assay (Thermo Fisher Scientific, Waltham, MA) prior to storage at −80° C.
Separate aliquots of tissue protein extracts and terminal plasma samples were used to quantify levels of various analytes. Multiple adipokines and hormones (MCP-1, leptin, insulin, and PAI-1) were assessed using a multiplex mouse-specific Luminex assay while adiponectin was evaluated using a single-plex mouse-specific Luminex assay (Millipore Sigma, Burlington, MA). All the commercial assays were performed per the manufacturer's instructions. Data were acquired on a FlexMap 3D (Luminex Corporation, Austin. TX). Tissue protein expression levels were normalized per mg of total protein.

Take `COc1ccn2c(=O)c(-c3cnn(CC(F)(F)C(F)(F)F)c3)c(C(F)(F)F)nc2c1` [Compound A, 8-methoxy-3-(1-(2,2,3,3,3-pentafluoropropyl)-1H-pyrazol-4-yl)-2-(trifluoromethyl)-4H-pyrido[1,2-a]pyrimidin-4-one]: in experiment [1] (Compound A-treated WT DIO mice), the “downregulated pathways (IPA) in the liver” value is “downregulation of Acute Phase Response. AMPK Signaling, and Senescence pathways”; the “upregulated pathways (IPA) in the liver” value is “upregulation of Calcium Signaling, PPARα/RXRα Activation, and Xenobiotic metabolism AHR Signaling pathways”. In addition, in experiment [1] (DIO mice), the “Insulin Receptor Signaling pathway (IPA) in EPI WAT” value is listed as “increased”; the “fatty acid oxidation-related genes (Cpt1a, Acox1, Acaa1a, Fgf21) in the liver” value is recorded as “increased”; the “inflammation-related genes (Cc12, Cd14, Cd68) in ING WAT” value is “decreased”; the “lipolysis (Lipe, Mg11, Pnpla2) and insulin-signaling genes (Insr, Irs1, Slc2a4) in EPI WAT” value is on record as “increased”. In addition, the “cellular composition of EPI WAT (immune cell population)” value in experiment [1] (DIO mice, relative to WT vehicle) is “decreases in T cells, B cells, and natural killer cells”. The adiponectin levels result in experiment [2] (EPI WAT) is recorded as “elevated”. Also, in experiment [2] (EPI and ING WAT), the MCP-1 levels result is recorded as “trends towards lower” and the PAI-1 levels result is on record as “trends towards lower”. Moreover, in experiment [2] (plasma, EPI and ING WAT), the leptin levels entry is given as “decreased”.
